Test results published in ChEMBL document CHEMBL1131835, “Synthesis and biological evaluation of conformationally restricted Gabapentin analogues” (Bioorg Med Chem Lett, 1999).
pIC50: −log10 of the molar value.

Assay: Displacement of [3H]gabapentin from alpha2-delta subunit of calcium channel

Question: With `O=C(O)[C@@H]1CNCC12CCCCC2` as the molecule, how does the pIC50 read?
Answer: < 5.00

Question: With `O=C(O)C1NCC12CCCCC2` (configuration not stated) as the molecule, how does the pIC50 read?
Answer: 5.82

Question: With `O=C(O)C1CCNCC12CCCCC2` (configuration not stated) as the molecule, how does the pIC50 read?
Answer: < 5.00

Question: With `O=C(O)[C@H]1CNCC12CCCCC2` as the molecule, how does the pIC50 read?
Answer: 6.92

Question: With `O=C(O)C[C@]12CCCC[C@H]1NC2` as the molecule, how does the pIC50 read?
Answer: < 5.00

Question: With `O=C(O)C[C@]12CCCC[C@H]1CNC2` as the molecule, how does the pIC50 read?
Answer: < 5.00
